{
  "source": "patent US6562243B2",
  "about": "(priority 2001, dated 2003)",
  "origin": "cited, not measured here",
  "tested_on": "Legionella",
  "data": [
    {"molecule": "[Ag]", "note": "[silver]", "values": [
      {"measurement": "silver level that kills Legionella", "result": 20, "unit": "ppb"}
    ]}
  ]
}
